Assay results: patent publication US20110010780A1, “KCNN3 AS DIAGNOSTIC AND THERAPEUTIC TARGET FOR NEURODEGENERATIVE DISEASES” (EVOTEC NeuroSciences GmbH, priority 2005, published 2011)

Tests used:
SK-channels = conditions: all SK-channels, rather unspecifically; cited from earlier work
KCNN3 [1] = molecular target: T1, KCNN3 (Homo sapiens, UniProt Q9UGI6, DUP76-80); assay: Z′-value assessment of the cellular KCNN3 screening assay with fluoxetine; type: cell-based; conditions: CHO-KCNN3 cells, 100 μM fluoxetine, ionomycin 500 nM
T1 construct: expressed in transfected cells
Protocol: The difference of the fluorescence intensity before addition of ionomycin and after the 120 seconds incubation period was determined where the cells were incubated with fluoxetine. The influx of calcium mediated by ionomycin leads to an opening of the channels and a subsequent hyperpolarization of the resting membrane potential of the cells. […] The mean value of the difference of the fluorescence in presence of ionomycin and fluoxetine in the above experiment is 15912 rfu (standard deviation 3636 rfu) and the mean value of the fluorescence of cells in presence of ionomycin only is 124086 rfu (standard deviation 12615 rfu). The Z′-value is calculated to be 0.55. The Z′ in a second series of experiments was determined to be 0.59.
In order to optimize the KCNN3 assay for screening purposes the Z′-value was assessed (FIG. 16). After 24 hours of incubation the medium was removed from a 384-well plate where CHO-KCNN3 cells were grown. 20 μl dye solution in assay buffer was pipetted onto the cells and afterwards another 20 μl assay buffer only or 20 μl assay buffer plus 100 μM fluoxetine was added. After 30 minutes of incubation at 37 ° C. the plate was transferred to the automated pipetting device/fluorescence reader (FlexStation, Molecular Devices) and 10 μl ionomycin was added at a final concentration of 500 nM. Fluorescence was then measured for 120 sec every 10 sec. […]

[2] = system: CHO wild type cells (CHO/−); assay: cellular membrane potential assay in CHO wild type cells (control cell line); type: cell-based
Protocol: (§1) The minimum fluorescence values during the following 5 minutes measurement period were subtracted from the maximum signal recorded at the beginning of the experiment and plotted against the concentration of the substances.
The assay makes use of membrane potential sensitive, fluorescent dyes and the activation of the calcium-sensitive KCNN3-potassium channel by the addition of ionomycin. Upon entry of calcium into the cells KCNN3 is activated and thus impacts on the resting membrane potential of the cells which is mirrored by the fluorescent dye. In more detail: CHO cells expressing KCNN3 are cultured on black 384-well plates with clear bottom at a density of 1.5.104 for 24 hours in a humidified incubator at 37° C. The cell culture medium is replaced with assay buffer (1 mM KCl, 2.3 mM CaCl2, 5 mM NaHCO3, 1 mM MgCl2, 154 mM NaCl, 5.5 mM d(+)-glucose, 5 mM HEPES, pH 7.4) containing 5 μM DiBAC4(3). After 30 min of cell loading with the dye at 37° C. fluorescence (excitation 488 nm, emission 538 nm) is read by using a fluorescence plate reader (Flex-station, Molecular Devices). Activation of KCNN3 is achieved by the addition of ionomycin at a 1μM final concentration (FIGS. 14 and 15). […] Fluorescence is monitored for a period of 5 min.

KCNN3 [3] = molecular target: T1, KCNN3; assay: cellular KCNN3 screening assay (membrane potential dye DiBAC4(3), ionomycin activation) in CHO/KCNN3 cells; type: cell-based; conditions: incubated 30 minutes before ionomycin (1 μM final), fluorescence over 5 minutes
Protocol: Upon entry of calcium into the cells the potassium channel is activated and thus impacts on the resting membrane potential of the cells which is mirrored by the fluorescent dye. The minimum fluorescence values measured during the following 5 minutes period were subtracted from the maximum signal recorded at the beginning of the experiment and plotted against the concentration of the substances incubated with the cells. The values obtained in the absence and at the lowest concentrations are indicative of a fully active potassium channel which leads to a hyperpolarization of the membrane potential.
as §1
The assay makes use of membrane potential sensitive, fluorescent dyes and the activation of the calcium-sensitive KCNN3-potassium channel by the addition of ionomycin. Upon entry of calcium into the cells KCNN3 is activated and thus impacts on the resting membrane potential of the cells which is mirrored by the fluorescent dye. […] After 30 min of cell loading with the dye at 37° C. fluorescence (excitation 488 nm, emission 538 nm) is read by using a fluorescence plate reader (Flex-station, Molecular Devices). […] Fluorescence is monitored for a period of 5 min.

In the case of c1cc2cc(c1)C[n+]1ccc(c3ccccc31)NCc1ccc(cc1)CNc1cc[n+](c3ccccc13)C2 [UCL-1684], the “block of SK-channels, potency” value (SK-channels) is given as “lesser potency compared to the toxins”.

In the case of CNCCC(Oc1ccc(C(F)(F)F)cc1)c1ccccc1 (stereo not shown) [fluoxetine], the “mean value of the difference of the fluorescence before addition of ionomycin and after 120 seconds” value (KCNN3 [1]; 30 minutes, standard deviation 3636 rfu) is reported as 15912 rfu and the “block of the KCNN3 ion channel” value (KCNN3 [1]) is reported as “the ion channel is blocked”.

For CC[N+](CC)(CC)CCOc1cccc(OCC[N+](CC)(CC)CC)c1OCC[N+](CC)(CC)CC [gallamine], the “block of SK-channels, potency” value (SK-channels) is given as “lesser potency compared to the toxins”.

In the case of C[C@H](CCC(=O)O)C[C@H](C)C[C@H](C)C(=O)/C=C(\O)[C@H](C)C[C@H](C)C/C=C/[C@@H](C)[C@@H](O)[C@@H](C)[C@@H](O)C[C@@H]1CC[C@@](C)([C@H]2CC[C@@](C)([C@@H](C)O)O2)O1 [ionomycin], the “effect on fluorescence (membrane potential) in CHO wild type cells” value [2] is reported as “no effect”.

Work on CN1CCN(CCCN2c3ccccc3Sc3ccc(C(F)(F)F)cc32)CC1 [trifluorperatine] yielded an IC50 (KCNN3 [3]) of 18 µM.

In the case of COc1cc2c3cc1Oc1cc(ccc1O)C[C@@H]1c4c(cc(OC)c(O)c4Oc4ccc(cc4)C[C@@H]3N(C)CC2)CC[N+]1(C)C [tubocurarine], the “block of SK-channels, potency” value (SK-channels) is given as “lesser potency compared to the toxins”.
